Patent US20120252796A1, “COMPOUNDS FOR THE TREATMENT OF DYSLIPIDEMIA AND RELATED DISEASES” (priority 2009, published 2012)

Assays:
PCSK9 [1] = biological target: T1, PCSK9 (Homo sapiens, UniProt Q8NBP7); assay: PCSK9-LDLR in vitro Binding Assay (ELISA)
Method: The PCSK9-LDLR in vitro Binding Assay is a quantitative solid phase binding assay between PCSK9 and recombinant LDLR. Plates were pre-coated with a recombinant LDLR-AB domain, which binds PCSK9. Test compound at different concentration was added to the PCSK9 and added to LDLR immobilized on the wells. The amount of bound PCSK9 is measured by binding it with biotinylated anti-His-tag monoclonal antibody, followed by binding with horseradish peroxidase conjugated streptavidin substrate. The color was quantified by ELISA reader at […] which reflects the relative amount of PCSK9 that binds to LDLR in presence and absence of the inhibitor. EC50 values were calculated by nonlinear regression analysis using graph pad prism software. Each concentration point represents values in duplicates.
Target sequence in this assay (Q8NBP7 153-692): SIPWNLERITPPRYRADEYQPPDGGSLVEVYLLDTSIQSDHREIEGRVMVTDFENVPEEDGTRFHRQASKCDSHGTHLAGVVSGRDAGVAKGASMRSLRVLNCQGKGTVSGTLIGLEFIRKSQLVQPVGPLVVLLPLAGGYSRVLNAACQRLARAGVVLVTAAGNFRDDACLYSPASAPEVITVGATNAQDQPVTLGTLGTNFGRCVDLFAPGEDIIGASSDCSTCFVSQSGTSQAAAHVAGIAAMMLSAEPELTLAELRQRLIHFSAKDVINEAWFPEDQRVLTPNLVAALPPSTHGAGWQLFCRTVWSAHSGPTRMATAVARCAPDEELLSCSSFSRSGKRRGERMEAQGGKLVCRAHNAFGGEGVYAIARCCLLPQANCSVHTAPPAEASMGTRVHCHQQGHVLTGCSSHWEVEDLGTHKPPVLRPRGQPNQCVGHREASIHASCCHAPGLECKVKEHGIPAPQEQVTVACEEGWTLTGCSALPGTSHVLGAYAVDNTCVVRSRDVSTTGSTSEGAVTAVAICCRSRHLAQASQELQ
Target sequence in this assay (Q8NBP7 31-152 partner limits assumed): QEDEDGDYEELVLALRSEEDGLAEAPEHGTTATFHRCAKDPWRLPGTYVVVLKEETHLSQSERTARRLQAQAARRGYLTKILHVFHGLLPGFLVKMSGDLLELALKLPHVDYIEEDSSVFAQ

[2] = test system: LPS induced dyslipidemia model C57 mice; assay: LDL-C lowering activity in LPS induced dyslipidemia model C57 mice; assay type: in vivo; details: male C57 mice, i.p. or oral, 24 hours after LPS, vs Vehicle group
Method: Male C57 mice of 7-10 week age are grouped based on non-fasting LDL-C levels, on next day these mice were administered with Vehicle or test compounds (i.p. or oral) and 30 min after compound administration lipolysaccharide (LPS) was administered. After LPS administration all animals were kept on fasting for 24 hours, after that animals were bled and LDL-C was measured. The percent change in LDL-C in test compound group Vs Vehicle group was calculated.

PCSK9 [3] = biological target: T1, PCSK9; assay: SPR binding studies (BIACORE3000); details: 25° C., phosphate buffer pH 7.4; compounds run at 10 nM, 100 nM and 1 micro mole, concentration of the value not stated
Method: Instrumentation: BIACORE3000 from GE Life Sciences was used and the Interaction analysis was performed at 25° C.
Buffers: phosphate buffer pH 7.4 supplied by Biacore supplemented with 0.01% dimethyl sulfoxide (DMSO) was used as running buffer during the assay.
Immobilization of Ligand: Sensor chip CM5 was used for analysis. The sensor chip consists of a carboxymethyl-modified dextran polymer linked to a gold-covered glass support. The ligand was diluted to 10 micro gram/ml in 10 mM sodium acetate, pH5.0 and immobilized to the sensor chip, using amine coupling. Running buffer without DMSO was used during immobilization. The surface was activated by injecting a solution containing 0.2M N-ethyl-N′-dimethyl aminopropyl-carbodiimide (EDC) and 50 mM N-hydroxy succinimide (NHS). The system was set for Aim for immobilization of about 1000 RU and the surface was blocked by injecting 1 Mehanolamine at pH 8.5. Then the surface was washed with 50 mM NaOH by injecting two 30 second-pulses to remove off non covalently bound ligand and to stabilize the baseline (automated procedure). Activated dextran was used as a reference surface. To ensure highest sensitivity the SPR Detector response was normalized before running the assay. By calibrating the detector at various light intensities under Conditions of total internal reflection (automated procedure). Solvent correction for DMSO was also carried to minimize the error in data.
Assay Design: A binding assay was set up for different compounds at three different concentrations (10 nM, 100 nM and 1 micro mole), and were injected over the reference and Ligand flow cells at a flow rate of 30 micro liter/min. Each cycle consisted of a 1-min waiting period for monitoring of the baseline stability and 3 minute injection of compound with a 5 minute Undisturbed dissociation phase, and the surface was regenerated with 50 mM NaoH solution. Compound responses in the reference flow cell were subtracted with that of ligand and a solvent correction run was carried in between and the binding potential of the compounds was reported as relative response units (RU).
Target sequence in this assay (Q8NBP7 153-692): as the sequence (Q8NBP7 153-692) above

[4] = test system: HF-HC diet fed Syrian golden hamsters; assay: Lipid lowering effect in HF-HC diet fed hamster model; assay type: in vivo; parameters: concentration or dose not given beside the values; details: oral gavage once daily, day 14
From the text: In this experiment, Syrian golden hamsters which were kept on high fat—high cholesterol (HF-HC) fructose diet for 2 weeks were divided into various groups based on LDL-C and Total cholesterol levels. The treatment was given by oral gavages once daily for 14 days. The blood was collected by retro-orbital sinus puncture method under light ether anesthesia on day 0 (pretreatment), and day 14 of the treatment for lipid levels measurements. The percent change in LDL-C in compound group Vs Vehicle group was calculated.

1-(2-methyl-5-((4-methyl-2-(4-(trifluoromethyl)phenyl)thiazol-5-yl)methyl)-1,3-dioxan-2-yl)-N—((tetrahydro-2H-pyran-4-yl)methyl)methanamine [Example 92]
% Inhibition PCSK9 (PCSK9 [1]; Concentration 1 μM): 11% | % Inhibition PCSK9 (PCSK9 [1]; Concentration 10 μM): 26% | % Inhibition PCSK9 (PCSK9 [1]; Concentration 100 μM): 40% | % Change in LDL-C [2]: −35.8 ± 10.5%

Cc1oc(-c2ccccc2)nc1CC1COC(C)(C(=O)NO)OC1 (single isomer, unassigned) [Example 6, N-hydroxy-2-methyl-5-c-((5-methyl-2-phenyloxazol-4-yl)methyl)-1,3-dioxane-2-carboxamide]
% Inhibition PCSK9 (PCSK9 [1]; 5 µM): 10% | % Inhibition PCSK9 (PCSK9 [1]; 10 µM): 11% | % Inhibition PCSK9 (PCSK9 [1]; 100 µM): 22% | Relative response (RU) (PCSK9 [3]): 2.65 RU

Cc1oc(-c2ccccc2)nc1CC1COC(C)(C(=O)NO)OC1 (single isomer, unassigned) [Example 7, N-hydroxy-2-methyl-5-t-((5-methyl-2-phenyloxazol-4-yl)methyl)-1,3-dioxane-2-carboxamide]
% Inhibition PCSK9 (PCSK9 [1]; Concentration 1 μM): 11% | % Inhibition PCSK9 (PCSK9 [1]; Concentration 10 μM): 12% | % Inhibition PCSK9 (PCSK9 [1]; Concentration 100 μM): 20% | % Change Vs Vehicle Control HDL-C [4]: −20.1% | % Change Vs Vehicle Control LDL-C [4]: −29.3% | % Change Vs Vehicle Control TC [4]: −29.6% | % Change Vs Vehicle Control TG [4]: −26.7%

Cc1oc(-c2ccccc2)nc1CC1COC(C)(C(=O)NCC2CCOCC2)OC1 (stereo not shown) [Example 8, 2-methyl-5-((5-methyl-2-phenyloxazol-4-yl)methyl)-N—((tetrahydro-2H-pyran-4-yl)methyl)-1,3-dioxane-2-carboxamide]
inhibition at 1 µM (PCSK9 [1]; Concentration 1 μM): 18% | inhibition at 10 µM (PCSK9 [1]; Concentration 10 μM): 23% | inhibition at 100 µM (PCSK9 [1]; Concentration 100 μM): 30% | % Change in LDL-C [2]: −33.5 ± 5.4%

Cc1oc(-c2ccccc2)nc1CC1COC(C)(C(=O)N2CCOCC2)OC1 (stereo not shown) [Example 12, (2-methyl-5-c-((5-methyl-2-phenyloxazol-4-yl)methyl)-1,3-dioxan-2-yl)(morpholino)methanone]
% Inhibition PCSK9 (PCSK9 [1]; Concentration 10 μM): 19% | % Inhibition PCSK9 (PCSK9 [1]; Concentration 100 μM): 18% | % Change in LDL-C [2]: −40 ± 10.0%

Cc1oc(-c2ccccc2)nc1CC1COC(C)(C(=O)N2CCN(C)CC2)OC1 (stereo not shown) [Example 14, (2-methyl-5-c-((5-methyl-2-phenyloxazol-4-yl)methyl)-1,3-dioxan-2-yl)(4-methylpiperazin-1-yl)methanone]
% Inhibition PCSK9 (PCSK9 [1]; Concentration 10 μM): 41% | % Inhibition PCSK9 (PCSK9 [1]; Concentration 100 μM): 5% | Relative response (RU) (PCSK9 [3]): 15.81 RU

Cc1oc(-c2ccccc2)nc1CC1COC(C)(C(=O)NCC(=O)N2CCOCC2)OC1 (stereo not shown) [Example 19, 2-methyl-5-c-((5-methyl-2-phenyloxazol-4-yl)methyl)-N-(2-morpholino-2-oxoethyl)-1,3-dioxane-2-carboxamide]
% Inhibition PCSK9 (PCSK9 [1]; Concentration 10 μM): 23% | % Inhibition PCSK9 (PCSK9 [1]; Concentration 100 μM): 25% | Relative response (RU) (PCSK9 [3]): 14.1 RU

Cc1oc(-c2ccccc2)nc1CC1COC(C)(C(=O)NCCC(=O)N2CCOCC2)OC1 (stereo not shown) [Example 26, 2-methyl-5-c-((5-methyl-2-phenyloxazol-4-yl)methyl)-N-(3-morpholino-3-oxopropyl)-1,3-dioxane-2-carboxamide]
Relative response (RU) (PCSK9 [3]): 10.3 RU

Cc1ccc(-c2nc(CC3COC(C)(C(=O)NO)OC3)c(C)o2)cc1 (stereo not shown) [Example 59, N-hydroxy-2-methyl-5-((5-methyl-2-(p-tolyl)oxazol-4-yl)methyl)-1,3-dioxane-2-carboxamide]
inhibition at 1 µM (PCSK9 [1]; Concentration 1 μM): 26% | inhibition at 10 µM (PCSK9 [1]; Concentration 10 μM): 27% | inhibition at 100 µM (PCSK9 [1]; Concentration 100 μM): 61% | Relative response (RU) (PCSK9 [3]): 1.36 RU

Cc1ccc(-c2nc(CC3COC(C)(C(=O)NCC4CCOCC4)OC3)c(C)o2)cc1 (stereo not shown) [Example 64, 2-methyl-5-t-((5-methyl-2-(p-tolyl)oxazol-4-yl)methyl)-N—((tetrahydro-2H-pyran-4-yl)methyl)-1,3-dioxane-2-carboxamide]
% Inhibition PCSK9 (PCSK9 [1]; Concentration 0.1 μM): 20% | % Inhibition PCSK9 (PCSK9 [1]; Concentration 1 μM, 1 µM): 23% | % Inhibition PCSK9 (PCSK9 [1]; Concentration 10 μM, 10 µM): 25% | % Inhibition PCSK9 (PCSK9 [1]; Concentration 100 μM, 100 µM): 49% | Relative response (RU) (PCSK9 [3]): 3.48 RU

Cc1oc(C(C)(C)C)nc1CC1COC(C)(C(=O)N2CCOCC2)OC1 (stereo not shown) [Example 73, (5-((2-(tert-butyl)-5-methyloxazol-4-yl)methyl)-2-methyl-1,3-dioxan-2-yl)(morpholino)methanone]
inhibition at 1 µM (PCSK9 [1]; Concentration 1 μM): 25% | inhibition at 10 µM (PCSK9 [1]; Concentration 10 μM): 27% | inhibition at 100 µM (PCSK9 [1]; Concentration 100 μM): 37% | Relative response (RU) (PCSK9 [3]): 2.4 RU

Cc1oc(-c2ccncc2)nc1CC1COC(C)(C(=O)NO)OC1 (stereo not shown) [Example 80, N-hydroxy-2-methyl-5-c-((5-methyl-2-(pyridin-4-yl)oxazol-4-yl)methyl)-1,3-dioxane-2-carboxamide]
% Inhibition PCSK9 (PCSK9 [1]; Concentration 1 μM, 1 µM): 32% | % Inhibition PCSK9 (PCSK9 [1]; Concentration 10 μM, 10 µM): 44% | % Inhibition PCSK9 (PCSK9 [1]; Concentration 100 μM, 100 µM): 34% | Relative response (RU) (PCSK9 [3]): 2.64 RU

Cc1oc(-c2ccncc2)nc1CC1COC(C)(C(=O)NCC2CCOCC2)OC1 (stereo not shown) [Example 85, 2-methyl-5-t-((5-methyl-2-(pyridin-4-yl)oxazol-4-yl)methyl)-N—((tetrahydro-2H-pyran-4-yl)methyl)-1,3-dioxane-2-carboxamide]
% Inhibition PCSK9 (PCSK9 [1]; Concentration 1 μM, 1 µM): 22% | % Inhibition PCSK9 (PCSK9 [1]; Concentration 10 μM, 10 µM): 30% | % Inhibition PCSK9 (PCSK9 [1]; Concentration 100 μM, 100 µM): 44% | Relative response (RU) (PCSK9 [3]): 17.29 RU

Cc1oc(-c2ccncc2)nc1CC1COC(C)(C(=O)NCC(=O)N2CCOCC2)OC1 (stereo not shown) [Example 86, 2-methyl-5-c-((5-methyl-2-(pyridin-4-yl)oxazol-4-yl)methyl)-N-(2-morpholino-2-oxoethyl)-1,3-dioxane-2-carboxamide]
% Inhibition PCSK9 (PCSK9 [1]; Concentration 10 μM, 10 µM): 11% | % Inhibition PCSK9 (PCSK9 [1]; Concentration 100 μM, 100 µM): 15% | Relative response (RU) (PCSK9 [3]): 14.95 RU

Cc1oc(-c2ccncc2)nc1CC1COC(C)(C(=O)NCC(=O)NCC2CCOCC2)OC1 (stereo not shown) [Example 89, 2-methyl-5-t-((5-methyl-2-(pyridin-4-yl)oxazol-4-yl)methyl)-N-(2-oxo-2-(((tetrahydro-2H-pyran-4-yl)methyl)amino)ethyl)-1,3-dioxane-2-carboxamide]
% Inhibition PCSK9 (PCSK9 [1]; Concentration 10 μM, 10 µM): 7% | % Inhibition PCSK9 (PCSK9 [1]; Concentration 100 μM, 100 µM): 10%

CC1(C(=O)NO)OCC(CCCn2c3ccccc3c3ccccc32)CO1 (stereo not shown) [Example 96, 5-c-(3-(9H-carbazol-9-yl)propyl)-N-hydroxy-2-methyl-1,3-dioxane-2-carboxamide]
% Inhibition PCSK9 (PCSK9 [1]; Concentration 10 μM): 10%

Cc1ccc(-n2nc(C(C)(C)C)cc2CC2COC(C)(C(=O)NO)OC2)cc1 (stereo not shown) [Example 99, N-(hydroxy)-5-c-((3-(tert-butyl)-1-(p-tolyl)-1H-pyrazol-5-yl)methyl)-2-methyl-1,3-dioxane-2-carboxamide]
% Inhibition PCSK9 (PCSK9 [1]; Concentration 10 μM): 5% | % Inhibition PCSK9 (PCSK9 [1]; Concentration 100 μM): 32%

Cc1ccc(-n2nc(C(C)(C)C)cc2CC2COC(C)(C(=O)N3CCN(C)CC3)OC2)cc1 (stereo not shown) [Example 105, (5-((3-(tert-butyl)-1-(p-tolyl)-1H-pyrazol-5-yl)methyl)-2-methyl-1,3-dioxan-2-yl)(4-methylpiperazin-1-yl)methanone]
inhibition at 10 µM (PCSK9 [1]; Concentration 10 μM): 10% | inhibition at 100 µM (PCSK9 [1]; Concentration 100 μM): 40%

(2-methyl-5-c-(2-(5-methyl-2-phenyloxazol-4-yl)ethyl)-1,3-dioxan-2-yl)(piperidin-1-yl)methanone [Example 44]
% Inhibition PCSK9 (PCSK9 [1]; 10 µM): 14% | % Inhibition PCSK9 (PCSK9 [1]; 100 µM): 25%

N-hydroxy-2-methyl-5-(2-(5-methyl-2-phenyloxazol-4-yl)ethyl)-1,3-dioxane-2-carboxamide [Example 34]
% Inhibition PCSK9 (PCSK9 [1]; Concentration 1 μM): 11% | % Inhibition PCSK9 (PCSK9 [1]; Concentration 10 μM): 12% | % Inhibition PCSK9 (PCSK9 [1]; Concentration 100 μM): 15% | Relative response (RU) (PCSK9 [3]): 1.95 RU | % Change Vs Vehicle Control HDL-C [4]: −10.3% | % Change Vs Vehicle Control LDL-C [4]: −38.2% | % Change Vs Vehicle Control TC [4]: −32.6% | % Change Vs Vehicle Control TG [4]: 2.2%
